Laboratory results as given in patent US9393316B2, “Cancer targeting peptides for enhancing anti-cancer drug delivery and therapeutic efficiencies” (priority 2014, dated 2016).
Where no end group is shown, it is not given here.

Test system: HCT116 cells
Assay: Flow cytometry binding of biotinylated pHCT74 peptide
Set-up: species or system human
Method: We propose the use of biotinylated pHCT74 peptide and a chemical cross-linker, DTSSP, to identify the unknown target protein on the plasma membrane of HCT116 cells. A biotin molecule was conjugated to the C terminus of synthetic pHCT74 peptide. The binding characteristics of biotinylated pHCT74 peptide to HCT116 cells were evaluated by flow cytometry for analyzing the concentration dependency of the binding (FIG. 4B). […] The membrane proteins of HCT116 cells were bound with biotin-pHCT74 peptide, cross-linked by DTSSP; followed by SDS-PAGE separation and LC/MS/MS analysis. A sharp bands was detected by silver staining (FIG. 4C), and subsequently analyzed by LC/MS/MS after tryptic digestion. Twelve tryptic peptides were identified as alpha-enolase (ENO1) fragments by search algorithms based on MASCOT software. Coverage of the identified peptides was 57% of the alpha-enolase sequence and the probability score was 424 (FIG. 4D).

biotinylated pHCT74 peptide: synthetic pHCT74 peptide with a biotin molecule conjugated to the C terminus (SSMDIVLRAPLMGGG-biotin)
cell binding activity after C-terminal biotin addition: did not affect its cell binding activity
